As usually defined, the AC50 is the midpoint of the concentration-response curve, whichever way the signal moves.

Where a SMILES comes first, the peptide text is derived from it.

Among the data in ChEMBL document CHEMBL5291721, “A preclinical secondary pharmacology resource illuminates target-adverse drug reaction associations of marketed drugs” (Nat Commun, 2023) are AC50 values, retold here.

Some targets named below: Cannabinoid receptor 1 (Homo sapiens, UniProt P21554); Motilin receptor (Homo sapiens, UniProt O43193); Histamine H2 receptor (Homo sapiens, UniProt P25021).
The target of test [1] is T1, Androgen receptor (Rattus norvegicus, UniProt P15207).
T1 sequence (P15207 whole entry): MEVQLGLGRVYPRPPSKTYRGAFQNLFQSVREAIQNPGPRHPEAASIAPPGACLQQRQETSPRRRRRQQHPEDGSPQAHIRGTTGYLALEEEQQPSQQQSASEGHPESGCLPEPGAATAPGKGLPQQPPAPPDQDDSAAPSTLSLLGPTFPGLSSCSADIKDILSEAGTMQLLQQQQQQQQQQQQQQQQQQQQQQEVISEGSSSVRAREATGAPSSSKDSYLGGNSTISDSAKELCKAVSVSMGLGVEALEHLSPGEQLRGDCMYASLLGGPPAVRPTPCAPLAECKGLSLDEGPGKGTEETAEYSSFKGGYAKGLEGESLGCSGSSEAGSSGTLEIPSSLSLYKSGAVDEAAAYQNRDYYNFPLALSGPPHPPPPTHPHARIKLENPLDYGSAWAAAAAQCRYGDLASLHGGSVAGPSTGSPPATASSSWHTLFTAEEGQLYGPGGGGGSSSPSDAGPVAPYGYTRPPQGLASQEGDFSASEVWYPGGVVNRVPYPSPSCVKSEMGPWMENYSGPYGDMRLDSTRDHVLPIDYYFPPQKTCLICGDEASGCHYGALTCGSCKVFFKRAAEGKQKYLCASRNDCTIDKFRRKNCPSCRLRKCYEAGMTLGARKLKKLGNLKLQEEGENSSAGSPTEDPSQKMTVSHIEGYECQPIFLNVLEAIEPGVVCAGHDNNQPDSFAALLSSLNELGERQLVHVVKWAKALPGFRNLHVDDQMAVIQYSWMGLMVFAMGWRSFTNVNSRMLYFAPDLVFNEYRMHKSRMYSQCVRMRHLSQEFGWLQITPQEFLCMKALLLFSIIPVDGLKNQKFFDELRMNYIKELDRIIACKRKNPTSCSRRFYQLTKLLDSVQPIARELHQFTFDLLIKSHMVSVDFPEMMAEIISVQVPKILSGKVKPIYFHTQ
In kind it is functional.

For test [2], the target named is 5-hydroxytryptamine receptor 2A (Homo sapiens, UniProt P28223). In kind it is functional, cell-based.
Chain of 5-hydroxytryptamine receptor 2A (P28223 whole entry): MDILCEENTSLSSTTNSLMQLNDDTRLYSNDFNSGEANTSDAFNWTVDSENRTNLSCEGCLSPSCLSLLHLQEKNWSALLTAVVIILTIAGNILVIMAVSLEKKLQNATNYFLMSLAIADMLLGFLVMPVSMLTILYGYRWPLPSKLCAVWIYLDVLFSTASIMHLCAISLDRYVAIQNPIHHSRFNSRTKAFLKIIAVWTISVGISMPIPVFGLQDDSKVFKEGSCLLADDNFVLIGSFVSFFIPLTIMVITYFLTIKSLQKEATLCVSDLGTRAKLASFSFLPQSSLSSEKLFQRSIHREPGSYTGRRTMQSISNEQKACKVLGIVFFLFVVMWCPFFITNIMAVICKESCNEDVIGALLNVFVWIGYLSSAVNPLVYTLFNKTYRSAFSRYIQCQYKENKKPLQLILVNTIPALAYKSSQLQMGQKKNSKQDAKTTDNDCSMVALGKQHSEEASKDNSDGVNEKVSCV
Test [3] deals with T2, Prostaglandin G/H synthase 1 (Rattus norvegicus, UniProt Q63921).
T2 sequence (Q63921 whole entry): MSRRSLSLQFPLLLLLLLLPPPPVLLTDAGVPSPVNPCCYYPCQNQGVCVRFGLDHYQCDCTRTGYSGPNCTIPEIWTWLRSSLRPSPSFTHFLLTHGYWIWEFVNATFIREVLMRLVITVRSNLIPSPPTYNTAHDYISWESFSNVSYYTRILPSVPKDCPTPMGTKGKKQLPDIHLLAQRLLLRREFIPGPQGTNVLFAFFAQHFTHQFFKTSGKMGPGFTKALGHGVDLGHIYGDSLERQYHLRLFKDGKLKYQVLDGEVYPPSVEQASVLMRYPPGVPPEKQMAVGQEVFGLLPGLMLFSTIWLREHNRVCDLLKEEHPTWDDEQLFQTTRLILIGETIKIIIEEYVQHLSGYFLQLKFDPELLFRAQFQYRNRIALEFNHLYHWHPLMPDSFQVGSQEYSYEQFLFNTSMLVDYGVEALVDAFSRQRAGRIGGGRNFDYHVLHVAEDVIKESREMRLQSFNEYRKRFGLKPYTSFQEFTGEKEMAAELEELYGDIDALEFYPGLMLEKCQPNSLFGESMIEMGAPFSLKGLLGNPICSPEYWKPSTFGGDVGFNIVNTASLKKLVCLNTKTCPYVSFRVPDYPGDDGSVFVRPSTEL
In kind it is functional.

The next test concerns the target Mu-type opioid receptor (Homo sapiens, UniProt P35372). The experiment in a line: biochemical. In kind it is functional.
Test [4] has as its target Beta-2 adrenergic receptor (Homo sapiens, UniProt P07550). The test is classed as functional, cell-based.
Test [5] has as its target Beta-3 adrenergic receptor (Homo sapiens, UniProt P13945).
Test [6] concerns the target 5-hydroxytryptamine receptor 2B (Homo sapiens, UniProt P41595).
The target of test [7] is Voltage-dependent N-type calcium channel subunit alpha-1B (Rattus norvegicus, UniProt Q02294). In kind it is functional.
Chain of Voltage-dependent N-type calcium channel subunit alpha-1B (Q02294 whole entry): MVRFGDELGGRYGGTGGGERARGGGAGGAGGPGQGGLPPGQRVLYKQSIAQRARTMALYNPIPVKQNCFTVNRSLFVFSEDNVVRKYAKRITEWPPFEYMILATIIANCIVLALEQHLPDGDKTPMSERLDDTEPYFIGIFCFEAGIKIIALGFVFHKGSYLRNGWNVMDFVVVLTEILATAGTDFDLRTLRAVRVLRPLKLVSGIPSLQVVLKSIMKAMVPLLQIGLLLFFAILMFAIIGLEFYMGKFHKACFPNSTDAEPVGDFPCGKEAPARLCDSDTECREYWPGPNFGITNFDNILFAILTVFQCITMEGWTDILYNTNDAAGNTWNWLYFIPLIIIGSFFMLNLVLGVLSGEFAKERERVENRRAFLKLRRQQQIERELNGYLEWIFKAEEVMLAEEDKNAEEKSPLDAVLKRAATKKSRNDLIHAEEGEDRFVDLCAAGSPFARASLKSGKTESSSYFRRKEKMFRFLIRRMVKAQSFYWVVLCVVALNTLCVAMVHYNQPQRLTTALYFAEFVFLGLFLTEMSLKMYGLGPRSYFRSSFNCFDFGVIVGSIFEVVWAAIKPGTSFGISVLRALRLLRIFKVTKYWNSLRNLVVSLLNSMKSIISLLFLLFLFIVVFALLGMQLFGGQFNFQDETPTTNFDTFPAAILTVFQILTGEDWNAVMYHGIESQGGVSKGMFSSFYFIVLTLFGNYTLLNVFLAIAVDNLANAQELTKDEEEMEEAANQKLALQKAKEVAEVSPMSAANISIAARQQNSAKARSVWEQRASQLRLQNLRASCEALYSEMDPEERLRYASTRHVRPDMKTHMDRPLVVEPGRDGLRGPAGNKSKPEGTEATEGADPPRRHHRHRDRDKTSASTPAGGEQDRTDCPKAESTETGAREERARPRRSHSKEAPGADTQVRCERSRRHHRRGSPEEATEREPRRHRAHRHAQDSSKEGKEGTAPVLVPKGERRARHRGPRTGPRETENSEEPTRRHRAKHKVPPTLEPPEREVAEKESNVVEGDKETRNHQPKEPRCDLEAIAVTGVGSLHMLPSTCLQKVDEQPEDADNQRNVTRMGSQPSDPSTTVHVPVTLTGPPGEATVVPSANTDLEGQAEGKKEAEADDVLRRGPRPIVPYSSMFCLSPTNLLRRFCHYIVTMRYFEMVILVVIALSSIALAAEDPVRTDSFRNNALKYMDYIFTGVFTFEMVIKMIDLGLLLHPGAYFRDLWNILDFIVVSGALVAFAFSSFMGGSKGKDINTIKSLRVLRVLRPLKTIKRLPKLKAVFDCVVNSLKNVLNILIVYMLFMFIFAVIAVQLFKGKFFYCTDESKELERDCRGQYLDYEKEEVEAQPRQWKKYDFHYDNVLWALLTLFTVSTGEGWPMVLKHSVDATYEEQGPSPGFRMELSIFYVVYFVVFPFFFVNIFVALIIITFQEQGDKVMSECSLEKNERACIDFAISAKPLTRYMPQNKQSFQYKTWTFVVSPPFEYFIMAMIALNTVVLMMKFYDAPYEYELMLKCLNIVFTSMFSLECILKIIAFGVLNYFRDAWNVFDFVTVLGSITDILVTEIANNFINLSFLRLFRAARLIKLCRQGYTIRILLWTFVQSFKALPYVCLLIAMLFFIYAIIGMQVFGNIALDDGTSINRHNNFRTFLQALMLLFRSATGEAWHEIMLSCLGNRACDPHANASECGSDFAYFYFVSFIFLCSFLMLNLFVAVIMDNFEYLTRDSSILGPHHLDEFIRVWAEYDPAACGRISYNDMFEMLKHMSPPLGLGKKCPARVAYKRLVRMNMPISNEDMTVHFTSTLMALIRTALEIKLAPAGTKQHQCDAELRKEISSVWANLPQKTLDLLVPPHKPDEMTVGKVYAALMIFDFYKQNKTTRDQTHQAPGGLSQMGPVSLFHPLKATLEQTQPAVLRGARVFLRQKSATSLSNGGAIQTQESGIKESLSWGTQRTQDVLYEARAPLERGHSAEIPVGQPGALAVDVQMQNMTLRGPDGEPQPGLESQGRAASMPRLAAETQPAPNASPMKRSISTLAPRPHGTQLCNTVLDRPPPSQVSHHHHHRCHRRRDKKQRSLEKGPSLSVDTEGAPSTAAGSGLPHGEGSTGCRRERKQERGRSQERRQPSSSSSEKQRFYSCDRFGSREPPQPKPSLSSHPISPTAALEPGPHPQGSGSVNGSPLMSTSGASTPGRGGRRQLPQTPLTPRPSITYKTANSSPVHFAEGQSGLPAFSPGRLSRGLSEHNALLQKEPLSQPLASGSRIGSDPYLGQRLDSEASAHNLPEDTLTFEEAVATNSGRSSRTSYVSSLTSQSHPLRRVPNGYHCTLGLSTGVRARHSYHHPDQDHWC
Test [8] has as its target T1, Androgen receptor.
The target of test [9] is T3, Neuropeptide Y receptor type 2 (Homo sapiens, UniProt P49146).
T3 sequence (P49146 whole entry): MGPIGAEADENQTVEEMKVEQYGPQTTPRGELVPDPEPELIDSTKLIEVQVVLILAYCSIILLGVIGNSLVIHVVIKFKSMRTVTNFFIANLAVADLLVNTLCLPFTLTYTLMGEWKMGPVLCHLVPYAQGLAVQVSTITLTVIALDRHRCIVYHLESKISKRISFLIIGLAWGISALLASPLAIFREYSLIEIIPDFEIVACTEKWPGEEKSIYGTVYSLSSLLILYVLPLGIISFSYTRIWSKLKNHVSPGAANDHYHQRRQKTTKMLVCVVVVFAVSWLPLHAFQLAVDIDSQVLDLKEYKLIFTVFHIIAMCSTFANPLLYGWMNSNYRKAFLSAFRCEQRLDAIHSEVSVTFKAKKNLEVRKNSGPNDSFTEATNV

The target of test [10] is T4, Gastric inhibitory polypeptide receptor (Homo sapiens, UniProt P48546).
T4 sequence (P48546 whole entry): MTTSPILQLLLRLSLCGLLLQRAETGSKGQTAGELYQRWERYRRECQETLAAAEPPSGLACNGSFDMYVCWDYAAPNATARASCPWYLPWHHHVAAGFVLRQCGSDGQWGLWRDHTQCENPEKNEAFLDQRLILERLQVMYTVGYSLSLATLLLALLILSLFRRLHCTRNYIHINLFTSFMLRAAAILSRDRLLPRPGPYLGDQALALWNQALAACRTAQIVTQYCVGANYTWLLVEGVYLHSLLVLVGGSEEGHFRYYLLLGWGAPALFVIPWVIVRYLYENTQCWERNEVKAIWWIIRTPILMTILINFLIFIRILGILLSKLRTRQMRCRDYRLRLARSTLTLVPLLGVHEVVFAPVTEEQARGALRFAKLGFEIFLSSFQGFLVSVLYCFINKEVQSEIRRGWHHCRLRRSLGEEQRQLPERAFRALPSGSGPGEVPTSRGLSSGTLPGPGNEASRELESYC

Test [11] deals with Neurotensin receptor type 1 (Homo sapiens, UniProt P30989).
Chain of Neurotensin receptor type 1 (P30989 whole entry): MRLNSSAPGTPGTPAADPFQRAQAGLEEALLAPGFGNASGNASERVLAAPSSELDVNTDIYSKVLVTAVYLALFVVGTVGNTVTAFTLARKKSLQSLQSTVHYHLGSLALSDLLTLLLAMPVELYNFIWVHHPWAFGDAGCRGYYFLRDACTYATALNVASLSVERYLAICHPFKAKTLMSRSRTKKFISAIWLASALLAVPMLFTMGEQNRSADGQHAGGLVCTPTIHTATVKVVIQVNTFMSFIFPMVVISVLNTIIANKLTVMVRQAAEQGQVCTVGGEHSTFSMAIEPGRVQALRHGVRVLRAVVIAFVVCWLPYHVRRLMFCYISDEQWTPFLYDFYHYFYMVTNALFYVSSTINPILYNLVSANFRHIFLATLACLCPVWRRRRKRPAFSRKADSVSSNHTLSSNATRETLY
Also: assay procedure not described here.

Chain of Cannabinoid receptor 1 (P21554 whole entry): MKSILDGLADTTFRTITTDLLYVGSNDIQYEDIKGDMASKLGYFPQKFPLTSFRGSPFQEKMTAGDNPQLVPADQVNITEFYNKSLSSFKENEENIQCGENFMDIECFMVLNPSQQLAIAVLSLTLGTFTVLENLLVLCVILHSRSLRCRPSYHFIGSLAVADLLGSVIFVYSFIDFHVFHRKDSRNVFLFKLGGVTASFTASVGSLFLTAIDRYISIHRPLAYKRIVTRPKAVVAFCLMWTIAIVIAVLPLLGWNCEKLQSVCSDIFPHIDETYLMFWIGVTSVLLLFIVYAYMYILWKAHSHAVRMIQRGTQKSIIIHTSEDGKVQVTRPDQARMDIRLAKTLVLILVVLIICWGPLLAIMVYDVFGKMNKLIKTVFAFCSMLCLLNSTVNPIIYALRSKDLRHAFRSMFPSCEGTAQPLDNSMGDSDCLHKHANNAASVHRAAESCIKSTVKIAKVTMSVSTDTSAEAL
Chain of Beta-3 adrenergic receptor (P13945 whole entry): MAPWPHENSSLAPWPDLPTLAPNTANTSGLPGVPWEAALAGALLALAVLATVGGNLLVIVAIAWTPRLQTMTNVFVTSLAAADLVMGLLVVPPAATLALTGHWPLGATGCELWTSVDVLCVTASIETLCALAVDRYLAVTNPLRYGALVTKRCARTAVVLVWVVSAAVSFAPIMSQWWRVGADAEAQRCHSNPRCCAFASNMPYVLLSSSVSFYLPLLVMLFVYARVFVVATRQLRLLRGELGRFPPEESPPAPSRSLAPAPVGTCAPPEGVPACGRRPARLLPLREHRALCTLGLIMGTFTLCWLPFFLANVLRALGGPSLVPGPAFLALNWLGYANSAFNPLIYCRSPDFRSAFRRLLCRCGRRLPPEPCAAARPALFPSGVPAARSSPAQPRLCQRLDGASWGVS
Chain of Histamine H2 receptor (P25021 whole entry): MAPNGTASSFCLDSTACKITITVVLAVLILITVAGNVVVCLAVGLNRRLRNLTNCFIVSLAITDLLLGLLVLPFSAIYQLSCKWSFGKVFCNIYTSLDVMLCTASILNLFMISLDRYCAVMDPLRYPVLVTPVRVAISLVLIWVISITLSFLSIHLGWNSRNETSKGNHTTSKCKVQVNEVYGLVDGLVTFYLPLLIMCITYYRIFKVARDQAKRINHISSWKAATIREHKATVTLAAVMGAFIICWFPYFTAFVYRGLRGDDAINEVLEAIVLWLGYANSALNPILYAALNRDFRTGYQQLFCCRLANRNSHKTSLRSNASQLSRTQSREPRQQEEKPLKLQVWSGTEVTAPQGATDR
Chain of Mu-type opioid receptor (P35372 whole entry): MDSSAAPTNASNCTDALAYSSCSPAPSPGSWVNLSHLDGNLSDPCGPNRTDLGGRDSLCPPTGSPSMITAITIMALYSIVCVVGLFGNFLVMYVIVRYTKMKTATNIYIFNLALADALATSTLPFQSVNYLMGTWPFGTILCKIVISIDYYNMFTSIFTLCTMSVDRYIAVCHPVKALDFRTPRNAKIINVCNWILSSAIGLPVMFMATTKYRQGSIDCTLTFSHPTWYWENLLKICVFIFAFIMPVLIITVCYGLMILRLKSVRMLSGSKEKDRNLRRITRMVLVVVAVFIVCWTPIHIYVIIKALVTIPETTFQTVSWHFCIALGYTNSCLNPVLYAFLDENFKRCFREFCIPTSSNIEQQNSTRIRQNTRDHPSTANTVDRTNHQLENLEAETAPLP

On to `O=C(O)c1ccc2nc(-c3cc(Cl)cc(Cl)c3)oc2c1`, for which the AC50 is 22 µM on Cannabinoid receptor 1; above 30 µM on Androgen receptor [1]; above 30 µM in [2]; above 30 µM in test [3]; above 30 µM at Motilin receptor; above 30 µM at Mu-type opioid receptor.

For `NS(=O)(=O)c1ccc(N2CCCCS2(=O)=O)cc1`, the AC50 (on Androgen receptor [1]; in test [4]; in test [2]; in [3]; on Motilin receptor; at Mu-type opioid receptor) was above 30 µM each time.

As to `C[C@H](N)C(=O)N[C@@H](CCC(N)=O)C(=O)O` [ALANYL GLUTAMINE] (H-Ala-Gln-OH), the AC50 (on Androgen receptor [1]; in test [2]; in [3]; at Motilin receptor; at Mu-type opioid receptor) was above 30 µM in each case.

Consider `COc1ccc(-n2nc(C(N)=O)c3c2C(=O)N(c2ccc(N4CCCCC4=O)cc2)CC3)cc1` [APIXABAN], for which the AC50 (at Androgen receptor [1]; in test [4]; in test [3]; on Motilin receptor) was above 30 µM throughout.

`CCCO[C@H]1[C@@H]([C@@H](COCc2ccc(Cl)cc2)OCc2ccc(Cl)cc2)OC(OCC)[C@@H]1O` (stereo partly drawn) [CLOBENOSIDE]: the AC50 on Androgen receptor [1] is above 30 µM; in test [2] it was above 30 µM; in test [3], above 10 µM; at Motilin receptor, above 30 µM; at Mu-type opioid receptor it was above 30 µM.

For `O=C1CN=C(c2ccccc2Cl)c2cc([N+](=O)[O-])ccc2N1` [CLONAZEPAM], the AC50 at Cannabinoid receptor 1 is above 10 µM; at Histamine H2 receptor, above 10 µM; in test [5], above 30 µM; in test [6] it was above 10 µM; in test [4] it was above 30 µM; in test [3] it was above 30 µM. Also, the concentration at half-maximal activity (AC50) was above 10 µM on Motilin receptor; above 10 µM in test [7]; above 30 µM on Androgen receptor [8]; above 30 µM in [9]; above 30 µM in [10]; above 30 µM in test [11].

With `CCN(CC)C(C)C(=O)c1ccccc1` (stereo not drawn) [DIETHYLPROPION], the AC50 at Cannabinoid receptor 1 was above 10 µM; on Histamine H2 receptor, above 10 µM; in test [5], above 30 µM; in test [6], above 10 µM; in test [4], above 30 µM; in test [3] it was above 30 µM. For the same molecule, the AC50 on Motilin receptor was above 10 µM; in [7], above 10 µM; on Androgen receptor [8], above 30 µM; in test [9], above 30 µM; in test [10] it was above 30 µM; in [11], above 30 µM.

With `Cc1ccc(-c2ncc(Cl)cc2-c2ccc(S(C)(=O)=O)cc2)cn1` [ETORICOXIB], the AC50 on Cannabinoid receptor 1 is above 10 µM; on Histamine H2 receptor, above 10 µM; in [5], above 30 µM; in [6], above 10 µM; in test [4] it was above 30 µM; in test [2], above 30 µM. For the same molecule, the AC50 was above 30 µM in [3]; above 10 µM at Motilin receptor; above 10 µM in test [7]; above 30 µM at Androgen receptor [8]; above 30 µM in test [9]; above 30 µM in [10]. Moreover, the AC50 in test [11] is above 30 µM.

On to `CC(=O)OCC(=O)[C@@]1(O)CC[C@H]2[C@@H]3CCC4=CC(=O)CC[C@]4(C)[C@@]3(F)[C@@H](O)C[C@@]21C` [FLUDROCORTISONE ACETATE], for which the AC50 (at Androgen receptor [1]; in test [4]; in test [3]; at Motilin receptor; on Mu-type opioid receptor) was above 30 µM throughout.

As for `CCCCOC(=O)C(=O)Nc1cccc(-c2nnn[nH]2)c1` [TAZANOLAST], the AC50 (on Androgen receptor [1]; in test [2]; in test [3]; at Motilin receptor; at Mu-type opioid receptor) was above 30 µM throughout.

Turning to `CN(C)CCOCC(=O)NC12CC3CC(CC(C3)C1)C2` [TROMANTADINE], the AC50 (on Androgen receptor [1]; in [2]; in test [3]; on Motilin receptor; at Mu-type opioid receptor) was above 30 µM throughout.
